Assay results taken from patent publication US20250034600A1, “ONIUM SALT COMPOSITIONS, METHODS FOR PRODUCING CELLULOSE HYDROLYSATES, ALCOHOLS AND/OR ORGANIC ACIDS IN THE PRESENCE OF ONIUM SALT COMPOSITIONS” (KOEI CHEMICAL COMPANY, LIMITED, priority 2023, published 2025).

Key:
[1] = test system: cellulase (produced by Sigma) and dry yeast; test: Cellulose dissolution, cellulase hydrolysis and dry yeast fermentation to ethanol in one pot in the presence of the onium salt; type: cell-based; conditions: 2.00 g onium salt, 0.50 g microcrystalline cellulose, 80° C. 3 h; 38.0 g water, 20 μL cellulase, 50° C. 10 h; 0.50 g dry yeast, 30° C. 7 h; GC
Description: 2.00 g of 1,3-bis(3-methoxypropyl)imidazolium acetate was placed in a sample tube, and 0.50 g of microcrystalline cellulose (Avicel (registered trademark) PH-101) was added. The resulting mixture was heated and stirred at 80° C. for 3 hours. After confirming by visual observation that the microcrystalline cellulose had been […], 38.0 g of ultrapure water and 20 μL of cellulase (produced by Sigma) were added. The resulting mixture was stirred at 50° C. for 10 hours. 0.50 g of dry yeast was then added and the resulting mixture was gently stirred at 30° C. After 7 hours, the insoluble matter was filtered off, and the amount of ethanol produced was quantified by GC (gas chromatography) to calculate the ethanol yield.
The same procedure as in Example 5 was repeated, except that 1-ethyl-3-methylimidazolium acetate was used in place of the 1,3-bis(3-methoxypropyl)imidazolium acetate used in Example 5.
The same procedure as in Example 5 was repeated, except that the 1,3-bis(3-methoxypropyl)imidazolium acetate used in Example 5 was not added and 2.00 g of ultrapure water was used in place of 2.00 g of 1,3-bis(3-methoxypropyl)imidazolium acetate.

[2] = test system: dry yeast; test: Fermentation of glucose with dry yeast to ethanol in the presence of the onium salt; type: cell-based; conditions: 0.20 g onium salt, 0.5 g glucose, 9.6 g water, 0.05 g dry yeast, stand overnight; ethanol quantified by GC
Description: (§1) 0.20 g of 1,3-bis(3-methoxypropyl)imidazolium acetate, 0.5 g of glucose (β-D-glucose (including α-D-glucose), produced by Tokyo Chemical Industry Co., Ltd.), and 9.6 g of ultrapure water were placed in a sample tube. The resulting mixture was stirred until the glucose was completely dissolved. After the glucose had been completely dissolved, 0.05 g of dry yeast was added and the resulting mixture was allowed to stand overnight. After filtering off the insoluble matter, the amount of ethanol produced was quantified by GC (gas chromatography) to calculate the ethanol yield.
as §1, with “1,3-bis(methoxyethoxypropyl)imidazolium acetate ([(MeOEtOPr)2Im][AcO]),” for “1,3-bis(3-methoxypropyl)imidazolium acetate,”, “added. The” for “added and the”
as §1, with “1,3-bis(ethoxypropyl)imidazolium acetate ([(EtOPr)2Im][AcO]),” for “1,3-bis(3-methoxypropyl)imidazolium acetate,”
The same procedure as in Example 2 was repeated except that 1-ethyl-3-methylimidazolium acetate was used in place of the 1,3-bis(3-methoxypropyl)imidazolium acetate used in Example 2.

[3] = test system: cellulase (produced by Sigma); test: Enzymatic hydrolysis of microcrystalline cellulose with cellulase in the presence of the onium salt; type: biochemical; conditions: 1.00 g microcrystalline cellulose in 5.00 g onium salt; 95.0 g water, 10 μL cellulase, 4 days; calculated from cellulose residue
Description: 5.00 g of 1,3-bis(3-methoxypropyl)imidazolium acetate was placed in a flask and maintained at 50° C. 1.00 g of microcrystalline cellulose (Avicel (registered trademark) PH-101) was added at 50° C., and the resulting mixture was stirred until visual observation confirmed that microcrystalline cellulose had been completely dissolved. 95.0 g of ultrapure water and 10 μL of cellulase (produced by Sigma) were added, and the resulting mixture was stirred for 4 days. The remaining cellulose residue was recovered by filtration, and the glucose conversion rate was calculated.
The same procedure as in Example 1 was repeated except that 1-ethyl-3-methylimidazolium acetate was used in place of the 1,3-bis(3-methoxypropyl)imidazolium acetate used in Example 1.

[4] = test system: yeast (Saccharomyces cerevisiae); test: Antibacterial test (minimum inhibitory concentration, MIC value) against yeast; type: cell-based; conditions: lower MIC = greater inhibition
Description: An antibacterial test (measurement of minimum inhibitory concentration (MIC value)) of 1,3-bis(3-methoxypropyl)imidazolium acetate and 1-ethyl-3-methylimidazolium acetate against yeast (Saccharomyces cerevisiae) was carried out. A lower MIC value indicates a greater degree of inhibition of enzymatic and/or microbial activity.

Glucose conversion rate [3]	MIC value [4]	Structure (SMILES)	Ethanol yield [1]	Ethanol yield [2]
8%	0.5%	CC(=O)[O-].CCn1cc[n+](C)c1 [1-Ethyl-3-methylimidazolium acetate, 1-ethyl-3-methylimidazolium acetate, reference compound]	16.0	14.2%
–	–	CC(=O)[O-].CCOCCCn1cc[n+](CCCOCC)c1 [[EtOPr]2Im] [AcO], 1,3-bis(ethoxypropyl)imidazolium acetate]	–	46.38%
73%	5%	CC(=O)[O-].COCCCn1cc[n+](CCCOC)c1 [[MeOPr]2Im] [AcO], 1,3-bis(3-methoxypropyl)imidazolium acetate]	51.5	66.64%
–	–	CC(=O)[O-].COCCOCCCn1cc[n+](CCCOCCOC)c1 [[MeOEtOPr]2Im] [AcO], 1,3-bis(methoxyethoxypropyl)imidazolium acetate]	–	53.77%
